In brackets after ≈: the same amount, converted by molar mass.
What was measured:
[1] = tested on: L1210; experiment: In vitro inhibitory activity against FCE 24517 resistant L1210 leukemia cell lines ( ratio between IC50 values on resistant cells and sensitive cells); format: functional, Mus musculus
[2] = tested on: L1210; experiment: In vitro inhibitory activity against Doxorubicin resistant L1210 leukemia cell lines ( ratio between IC50 values on resistant cells and sensitive cells); format: functional, Mus musculus
[3] = tested on: L1210; experiment: The activity in vitro on L1210 murine leukemia cells, activity expressed as IC50; format: functional, cell-based, Mus musculus
[4] = tested on: Mus musculus; experiment: Median survival time of treated mice / Median survival time of controls x100 was measured in vivo on L1210 murine leukemia cells; format: functional
[5] = tested on: L1210; experiment: Optimal dose was measured in vivo on L1210 murine leukemia cells in CD2F1 mice(ip); format: functional, Mus musculus
[6] = Mus musculus, L1210, read-out: IC50

| Compound | R.I [1] | R.I [2] | IC50 [3, 6] [µg/mL] | IC50 ([3]; l1210) [µg/mL] | T/C [4] [%] | OD [5] [mg/kg] |
| --- | --- | --- | --- | --- | --- | --- |
| C=C(Br)C(=O)O | 0.5 | 1.1 | 18.8 (≈ 125 µM) |  |  |  |
| O=C(O)C1CO1 (stereo not drawn) | 0.5 | 1 |  | 131.397 (≈ 1490 µM) |  |  |
| Cl.Cn1cc(NC(=O)c2cc(NC(=O)c3cc(NC(=O)c4cc(NC=O)cn4C)cn3C)cn2C)cc1C(=O)NCCC(=N)N | 169.9 | 175.4 | 0.285 |  |  |  |
| Cl.Cn1cc(NC(=O)c2cc(NC(=O)c3cc(NC(=O)c4cc(NC(=O)C5CO5)cn4C)cn3C)cn2C)cc1C(=O)NCCC(=N)N (stereo not drawn) | 24.1 | 1.7 | 0.0389 |  | 188 | 3.125 |
| C=C(Cl)C(=O)Nc1cc(C(=O)Nc2cc(C(=O)Nc3cc(C(=O)NCCC(=N)N)n(C)c3)n(C)c2)n(C)c1.Cl | 24.8 | 40.3 | 0.056 |  | 184 | 10 |
| C=C(Br)C(=O)Nc1cc(C(=O)Nc2cc(C(=O)Nc3cc(C(=O)NCCC(=N)N)n(C)c3)n(C)c2)n(C)c1.Cl | 11.4 | 8.8 | 0.0496 |  | 175 | 12.5 |
| Cl.Cn1cc(NC(=O)c2cc(NC(=O)c3cc(NC(=O)C4CO4)cn3C)cn2C)cc1C(=O)NCCC(=N)N (stereo not drawn) | 44.4 | 7.1 | 0.229 |  | 188 | 50 |
| Cl.Cn1cc(NC(=O)c2cc(NC(=O)c3cc(NC(=O)c4cc(NC(=O)c5ccc(N(CCCl)CCCl)cc5)cn4C)cn3C)cn2C)cc1C(=O)NCCC(=N)N | 65.4 |  | 0.0163 |  | 138 | 0.39 |
| C=C(Br)C(=O)Nc1cc(C(=O)Nc2cc(C(=O)Nc3cc(C(=O)Nc4cc(C(=O)NCCC(=N)N)n(C)c4)n(C)c3)n(C)c2)n(C)c1.Cl | 27 | 3.8 | 0.0047 |  | 206 | 3.125 |
| C=C(Cl)C(=O)Nc1cc(C(=O)Nc2cc(C(=O)Nc3cc(C(=O)Nc4cc(C(=O)NCCC(=N)N)n(C)c4)n(C)c3)n(C)c2)n(C)c1.Cl | 69.6 | 59.9 | 0.0027 |  | 171 | 3.125 |
| Cn1cc(NC(=O)c2cc(NC(=O)c3cc(NC=O)cn3C)cn2C)cc1C(=O)NCCC(=N)N [STALLIMYCIN] | 14.1 | 45.6 | 5.22 (≈ 10.8 µM) |  | 113 | 200 |
| Cl.Cn1cc(NC(=O)c2cc(NC(=O)c3cc(NC(=O)c4ccc(N(CCCl)CCCl)cc4)cn3C)cn2C)cc1C(=O)NCCC(=N)N [TALLIMUSTINE CHLORIDE] | 21.7 | 28 | 0.0244 |  | 175 | 3.125 |
